Experimental data taken from PubChem BioAssay (NCI).
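Compound exposure: 48 hours, 5 concentrations, 96-well plates. GI50: concentration for 50% inhibition of growth. TGI: concentration producing complete growth inhibition.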

Tests used:
Experiment in all cases: DTP human tumour cell line panel, 48 h
786-0 renal = test system: 786-0 renal
A498 renal = test system: A498 renal
A549 NSCLC = test system: A549 NSCLC
ACHN renal = test system: ACHN renal
BT-549 breast = test system: BT-549 breast
CAKI-1 renal = test system: CAKI-1 renal
CCRF-CEM leukemia = test system: CCRF-CEM leukemia
COLO 205 colon = test system: COLO 205 colon
DU-145 prostate = test system: DU-145 prostate
EKVX NSCLC = test system: EKVX NSCLC
HCC-2998 colon = test system: HCC-2998 colon
HCT-116 colon = test system: HCT-116 colon
HCT-15 colon = test system: HCT-15 colon
HL-60(TB) leukemia = test system: HL-60(TB) leukemia
HOP-62 NSCLC = test system: HOP-62 NSCLC
HOP-92 NSCLC = test system: HOP-92 NSCLC
HS 578T breast = test system: HS 578T breast
HT29 colon = test system: HT29 colon
IGROV1 ovarian = test system: IGROV1 ovarian
K-562 leukemia = test system: K-562 leukemia
KM12 colon = test system: KM12 colon
M14 melanoma = test system: M14 melanoma
MALME-3M melanoma = test system: MALME-3M melanoma
MCF7 breast = test system: MCF7 breast
MDA-MB-231 breast = test system: MDA-MB-231 breast
MDA-MB-435 = test system: MDA-MB-435
MOLT-4 leukemia = test system: MOLT-4 leukemia
NCI-H23 lung = test system: NCI-H23 lung
NCI-H460 lung = test system: NCI-H460 lung
NCI/ADR-RES ovarian = test system: NCI/ADR-RES ovarian
OVCAR-4 ovarian = test system: OVCAR-4 ovarian
OVCAR-5 ovarian = test system: OVCAR-5 ovarian
OVCAR-8 ovarian = test system: OVCAR-8 ovarian
PC-3 prostate = test system: PC-3 prostate
RPMI-8226 leukemia = test system: RPMI-8226 leukemia
RXF 393 renal = test system: RXF 393 renal
SF-268 CNS = test system: SF-268 CNS
SF-295 CNS = test system: SF-295 CNS
SF-539 CNS = test system: SF-539 CNS
SK-MEL-2 melanoma = test system: SK-MEL-2 melanoma
SK-MEL-28 melanoma = test system: SK-MEL-28 melanoma
SK-MEL-5 melanoma = test system: SK-MEL-5 melanoma
SK-OV-3 ovarian = test system: SK-OV-3 ovarian
SN12C renal = test system: SN12C renal
SNB-19 CNS = test system: SNB-19 CNS
SNB-75 CNS = test system: SNB-75 CNS
SR leukemia = test system: SR leukemia
SW-620 colon = test system: SW-620 colon
T-47D breast = test system: T-47D breast
TK-10 renal = test system: TK-10 renal
U251 CNS = test system: U251 CNS
UACC-257 melanoma = test system: UACC-257 melanoma
UACC-62 melanoma = test system: UACC-62 melanoma
UO-31 renal = test system: UO-31 renal

C#C[C@]1(O)CC[C@H]2[C@@H]3CC=C4c5sc(Nc6cccc(F)c6)nc5CC[C@]4(C)[C@H]3CC[C@@]21C
GI50 (786-0 renal): 371 nM | TGI (786-0 renal): 2110 nM | GI50 (A498 renal): 368 nM | TGI (A498 renal): 2030 nM | GI50 (A549 NSCLC): 2730 nM | TGI (A549 NSCLC): 20300 nM | GI50 (ACHN renal): 1350 nM | TGI (ACHN renal): 4220 nM | GI50 (BT-549 breast): 456 nM | TGI (BT-549 breast): 3550 nM | GI50 (CAKI-1 renal): 1030 nM | TGI (CAKI-1 renal): 10800 nM | GI50 (CCRF-CEM leukemia): 534 nM | TGI (CCRF-CEM leukemia): 4160 nM | GI50 (COLO 205 colon): 1830 nM | TGI (COLO 205 colon): 4630 nM | GI50 (DU-145 prostate): 1490 nM | TGI (DU-145 prostate): 3970 nM | GI50 (EKVX NSCLC): 1650 nM | TGI (EKVX NSCLC): 15200 nM | GI50 (HCC-2998 colon): 2410 nM | TGI (HCC-2998 colon): 6460 nM | GI50 (HCT-116 colon): 982 nM | TGI (HCT-116 colon): 2350 nM | GI50 (HCT-15 colon): 1450 nM | TGI (HCT-15 colon): 4260 nM | GI50 (HL-60(TB) leukemia): 618 nM | TGI (HL-60(TB) leukemia): 2890 nM | GI50 (HOP-62 NSCLC): 2150 nM | TGI (HOP-62 NSCLC): 13600 nM | GI50 (HOP-92 NSCLC): 2190 nM | TGI (HOP-92 NSCLC): 7620 nM | GI50 (HS 578T breast): 364 nM | TGI (HS 578T breast): 3700 nM | GI50 (HT29 colon): 1520 nM | TGI (HT29 colon): 6060 nM | GI50 (IGROV1 ovarian): 1950 nM | TGI (IGROV1 ovarian): 7200 nM | GI50 (K-562 leukemia): 677 nM | TGI (K-562 leukemia): 3540 nM | GI50 (KM12 colon): 1890 nM | TGI (KM12 colon): 5690 nM | GI50 (M14 melanoma): 1310 nM | TGI (M14 melanoma): 5870 nM | GI50 (MALME-3M melanoma): 1490 nM | TGI (MALME-3M melanoma): 4710 nM | GI50 (MCF7 breast): 963 nM | TGI (MCF7 breast): 3690 nM | GI50 (MDA-MB-231 breast): 1940 nM | TGI (MDA-MB-231 breast): 5490 nM | GI50 (MDA-MB-435): 1650 nM | TGI (MDA-MB-435): 7500 nM | GI50 (MOLT-4 leukemia): 306 nM | TGI (MOLT-4 leukemia): 947 nM | GI50 (NCI-H23 lung): 1950 nM | TGI (NCI-H23 lung): 8420 nM | GI50 (NCI-H460 lung): 1160 nM | TGI (NCI-H460 lung): 3020 nM | GI50 (NCI/ADR-RES ovarian): 2320 nM | TGI (NCI/ADR-RES ovarian): 7610 nM | GI50 (OVCAR-4 ovarian): 2590 nM | TGI (OVCAR-4 ovarian): 16300 nM | GI50 (OVCAR-5 ovarian): 1760 nM | TGI (OVCAR-5 ovarian): 4470 nM | GI50 (OVCAR-8 ovarian): 3040 nM | TGI (OVCAR-8 ovarian): 87200 nM | GI50 (PC-3 prostate): 659 nM | TGI (PC-3 prostate): 12300 nM | GI50 (RPMI-8226 leukemia): 204 nM | TGI (RPMI-8226 leukemia): 615 nM | GI50 (RXF 393 renal): 65.3 nM | TGI (RXF 393 renal): 328 nM | GI50 (SF-268 CNS): 1620 nM | TGI (SF-268 CNS): 7500 nM | GI50 (SF-295 CNS): 208 nM | TGI (SF-295 CNS): 499 nM | GI50 (SF-539 CNS): 221 nM | TGI (SF-539 CNS): 1060 nM | GI50 (SK-MEL-2 melanoma): 1100 nM | TGI (SK-MEL-2 melanoma): 4450 nM | GI50 (SK-MEL-28 melanoma): 500 nM | TGI (SK-MEL-28 melanoma): 2060 nM | GI50 (SK-MEL-5 melanoma): 1600 nM | TGI (SK-MEL-5 melanoma): 3220 nM | GI50 (SK-OV-3 ovarian): 1860 nM | TGI (SK-OV-3 ovarian): 10100 nM | GI50 (SN12C renal): 3330 nM | TGI (SN12C renal): 13100 nM | GI50 (SNB-19 CNS): 1490 nM | TGI (SNB-19 CNS): 3880 nM | GI50 (SNB-75 CNS): 310 nM | TGI (SNB-75 CNS): 6080 nM | GI50 (SR leukemia): 340 nM | TGI (SR leukemia): 2960 nM | GI50 (SW-620 colon): 1720 nM | TGI (SW-620 colon): 4500 nM | GI50 (T-47D breast): 2140 nM | TGI (T-47D breast): 13800 nM | GI50 (TK-10 renal): 3760 nM | TGI (TK-10 renal): 15700 nM | GI50 (U251 CNS): 821 nM | TGI (U251 CNS): 3880 nM | GI50 (UACC-257 melanoma): 2310 nM | TGI (UACC-257 melanoma): 17000 nM | GI50 (UACC-62 melanoma): 1250 nM | TGI (UACC-62 melanoma): 3870 nM | GI50 (UO-31 renal): 937 nM | TGI (UO-31 renal): 2790 nM
